How the values were obtained:
[1] = system: collagen-induced arthritis (CIA) model in rats; test: CIA rats: arthritis severity index; assay type: in vivo, Sprague—Dawley rats; conditions: Methotrexate 0.5 mg/kg; vehicle CIA rats day 10
Description: (§1) Collagen induced arthritis (CIA) in rats was developed and utilized to evaluate efficacy of orally administered cashew skin extract for three weeks post disease induction. The study included seven groups of rats (n=9 rats/group). The rats were purpose bred male Sprague—Dawley rats (7-8 weeks old, Charles River Laboratories Inc., Wilmington, MA). Animals were acclimated for two weeks to achieve the required body weight before being assigned randomly to their respective group. Rats (3/cage) were housed in a polypropylene cage and individually identified by numbers on their tail. Individual cages were identified with a cage card indicating project number, test article, dose level, group, and animal number. Harlan Soft cob bedding (Envigo Tekland 7087, Envigo, Indianapolis, Indiana) was used and changed at least twice/week. Animals were provided with fresh water and rodent chow diet (Teklad 2018, Envigo, Indianapolis, Indiana) ad libitum and housed in a temperature-controlled room (22.2° C.) on a 12-h light-dark cycle throughout the study.
(§2) The study rats were randomized and administered one of seven study articles as noted in Table 4— […]
(§3) Rats were evaluated for arthritis index before injection of a booster dose. […]
(§4) During the in-life period, arthritis severity index, paw thickness, ankle diameter and pain sensitivity were monitored. […]

[2] = system: collagen-induced arthritis (CIA) model in rats; test: CIA rats: paw thickness / paw edema; assay type: in vivo, Sprague—Dawley rats; conditions: day 7-day 21; Methotrexate 0.5 mg/kg; vs vehicle treated CIA
Description: as §1, §2, §3, §4

[3] = system: collagen-induced arthritis (CIA) model in rats; test: CIA rats: ankle diameter; assay type: in vivo, Sprague—Dawley rats; conditions: days 7 to 21; Methotrexate 0.5 mg/kg
Description: as §1, §2, §3, §4

[4] = system: collagen-induced arthritis (CIA) model in rats; test: CIA rats: pain sensitivity (Randall—Selitto probe); assay type: in vivo, Sprague—Dawley rats; conditions: Methotrexate 0.5 mg/kg; range over time points
Description: as §1, §2, §3, §4

[5] = system: CTX-II; test: CIA rats: urine CTX-II ELISA; assay type: in vivo, Rat; conditions: Methotrexate 0.5 mg/kg
Description: as §1
(§5) During the in-life period, arthritis severity index, paw thickness, ankle diameter and pain sensitivity were monitored. Urine and serum were collected at the end of study for biomarker analysis. […] Urinary cartilage degradation marker (CTX-II), proinflammatory cytokines (TNF-α, IL-1β, and IL-6), cartilage synthesis marker (PIIANP) and matrix degrading proteases (MMP13) were measured.
Assay. Rat urine samples were diluted 1:3 and the presence of CTX-II was measured using the Rat CTX-II ELISA kit from Mybiosource as follows. […] After the addition of stop solution, the absorbance was read at 450 nm, multiplied by dilution factor, and the concentration of CTX-II calculated based on the absorbance readings of a CTX-II standard curve.
Creatine—CTX-II amount was normalized to the amount of Creatinine in the urine using a Creatinine Parameter Assay Kit (R&D Systems) as follows. […] Absorbance was read at 492 nm, and Creatinine amount in urine was calculated based on the absorbance readings of a Creatinine standard curve. […]

[6] = system: IL-1β; test: CIA rats: serum IL-1β ELISA; assay type: in vivo, Rat; conditions: Methotrexate 0.5 mg/kg
Description: as §1, with “Harlan Soft cob bedding (Envigo Tekland 7087, Envigo, Indianapolis, Indiana) was used and changed at least twice/week. Animals were provided with fresh water and rodent chow diet (Teklad 2018, Envigo, Indianapolis, Indiana) ad libitum and housed in a temperature-controlled room (22.2° C.) on a 12-h light-dark cycle throughout the study.” left out
as §5, with “monitored.” for “monitored. Urine and serum were collected at the end of study for biomarker analysis.”, “measured. […]” for “measured.”
ELISA Assay. The presence of cytokines IL-1β/IL-6/TNF-α was measured using the Rat IL-1β/IL-6/TNF-α Quantikine ELISA kit (R&D Systems, Minneapolis, Minnesota) as follows. […] After the addition of stop solution, the absorbance was read at 450 nm and the concentration of IL-1β/IL-6/TNF-α calculated based on the absorbance readings of an IL-1β/IL-6/TNF-α standard curve.

[7] = system: PIIANP; test: CIA rats: serum PIIANP ELISA; assay type: in vivo, Rat; conditions: Methotrexate 0.5 mg/kg
Description: as §1, with “Harlan Soft cob bedding (Envigo Tekland 7087, Envigo, Indianapolis, Indiana) was used and changed at least twice/week. Animals were provided with fresh water and rodent chow diet (Teklad 2018, Envigo, Indianapolis, Indiana) ad libitum and housed in a temperature-controlled room (22.2° C.) on a 12-h light-dark cycle throughout the study.” left out
as §5, with “monitored.” for “monitored. Urine and serum were collected at the end of study for biomarker analysis.”
ELISA Assay. The presence of PIIANP was measured using the Rat Procollagen Type IIA N-Prop (PIIANP) ELISA kit (MyBiosource, San Diego, California) as follows. […] After the addition of stop solution, the absorbance was read at 450 nm and the concentration of PIIANP calculated based on the absorbance readings of a PIIANP standard curve.

[8] = system: collagen-induced arthritis (CIA) model in rats; test: CIA rats: ankle joint histopathology (modified Mankin system); assay type: in vivo, Sprague—Dawley rats; conditions: Methotrexate 0.5 mg/kg
Description: as §1
During the in-life period, arthritis severity index, paw thickness, ankle diameter and pain sensitivity were monitored. Urine and serum were collected at the end of study for biomarker analysis. Necropsy was carried out on day 22 for all the groups post priming. At necropsy, the ankle joint from each rat was collected for histopathology analysis. Urinary cartilage degradation marker (CTX-II), proinflammatory cytokines (TNF-α, IL-1β, and IL-6), cartilage synthesis marker (PIIANP) and matrix degrading proteases (MMP13) were measured.
Procedures and Evaluations. At necropsy, the ankle joint was carefully dissected out, fixed in 10% buffered formalin, and sent to Nationwide Histology (Veradale, WA, USA) for further histopathology analysis. The fixed specimens were then decalcified with Calci-Clear Rapid for one and a half days and embedded in paraffin. Standardized 5 μm serial sections were obtained from each rat and stained with hematoxylin and eosin (HE) and Safranin 0-fast green to enable evaluation of proteoglycan content. A modified Mankin system (Mankin et al., 1981) was used to score structural and cellular alterations of articular components as indications of disease progression and/or treatment efficacy. The histological analysis was conducted by a certified Pathologist at Nationwide Histology.

[9] = system: potato 5-Lipoxygenase enzyme; test: 5-LOX inhibition, Lipoxygenase Inhibitor Screening Assay Kit; assay type: biochemical; conditions: at 100 μM
Description: Cashew testa extract was tested for 5-LOX inhibition using the Lipoxygenase Inhibitor Screening Assay Kit (available from Cayman Chemical, Ann Arbor, Michigan, US) and potato 5-Lipoxygenase enzyme (available from Cayman Chemical). This kit measures hydroperoxides produced in the lipoxygenation reaction.
The extracts were dissolved in methanol to final working concentrations. 5-LOX enzyme, Chromagen, and Linoleic Acid solutions were prepared immediately before use. Nordihydroguaiaretic acid (‘NDGA’) was used as a positive control. 5-LOX enzyme was added to the test samples and controls and incubated for five minutes at room temperature to allow for enzyme/inhibitor interaction. Linoleic acid substrate was added to the plate to initiate the reaction, and the plate was then shaken at room temperature for 10 minutes. Chromagen was added to visualize the hydroperoxides formed during the reaction and the plate was shaken at room temperature for another five minutes. The absorbance was then read at 492 nm. Percent inhibition of the extract concentration was calculated in comparison to the uninhibited control wells.
Cashew testa extract was tested for its 5-LOX inhibition activity at 10 different concentrations (0.7, 1.5, 3.0, 6.0, 11.9, 15.6, 31.2, 62.5, 125.0 and 250.0 μg/mL).

CN(Cc1cnc2nc(N)nc(N)c2n1)c1ccc(C(=O)N[C@@H](CCC(=O)O)C(=O)O)cc1 [MTX, Methotrexate]
disease onset, day after priming [1]: 14
reduction in paw edema, area under the swelling curve [2]: 90.2%
reduction in ankle diameter, area under the curve [3]: 89.1%
pain tolerance vs Vehicle treated CIA [4]: 14.1-67.1%
urine CTX-II, cartilage protection vs vehicle treated CIA rats ([5]; normalized with creatinine): 27.2%
urine CTX-II, cartilage protection vs vehicle treated CIA rats ([5]; normalized with protein): 22.9%
urine CTX-II, cartilage protection vs vehicle treated CIA rats ([5]; raw data): up to 53.8%
reduction in serum level of IL-1β vs CIA rats treated with vehicle [6]: 86.4%
increase in serum PIIANP compared to CIA+vehicle [7]: 41%
GAG loss, lower than vehicle [8]: 50.7%
bone erosion, lower than vehicle [8]: 71.2%
cartilage destruction, lower than vehicle [8]: 50.7%
inflammation, lower than vehicle [8]: 55.8%

CC(Cc1ccc(O)c(O)c1)C(C)Cc1ccc(O)c(O)c1 (centres unmarked) [NDGA, Nordihydroguaiaretic acid]
5-LOX enzyme inhibition [9]: 100%
